Experimental data reported in article PMC11969024, “Development of chemokine network inhibitors using combinatorial saturation mutagenesis” (Communications Biology, 2025).

Tested on: THP1 cells, activated T-cells (ATC), J:CXCR1 cells
Assay: Meta-analysis of individual chemokine-induced cell migration experiments
Type: cell-based, human
Conditions: seven CC and three CXC chemokines, Dunnett's test
Description: Cell migration assays were performed as follows. THP1 cell migration. Briefly, 300000 cells/well were added to the top chamber of a 5-µm 96-well Transwell insert (3387, Corning) in 50 µL of cell migration media (RPMI-1640 (R0883, Sigma), 0.5% FBS (F9665, Sigma), 4mM L-Glutamine (G7513, Sigma), 0.05% DMSO (D4540, Sigma)). The bottom chamber contained 150 µL of migration media with chemokine and peptide. Cells were migrated at 37 °C in 5% CO2 for 4 h. J:CXCR1 cell migration was performed exactly as above using a 3-µm Transwell insert (3385, Corning). Activated T-cell migration. Briefly, 100000 cells/well were added to the top chamber of a 3-µm Transwell insert (3385, Corning) in 50 µL of migration media (HBSS (14025-092, Life Technologies), 0.1% protease free bovine serum albumin (A7030, Sigma), 0.05% DMSO (D4540, Sigma)). The bottom chamber contained 150 µL of migration media with chemokine and peptide. Cells were migrated at 37 °C in 5% CO2 for 2 h. Buffy coat migration. Briefly, a mixture of all cell types at 100000 cells/well were added to the top chamber of a 3-µm Transwell insert (3385, Corning) in 50 µL of migration media (HBSS (14025-092, Life Technologies), 0.1% protease free bovine serum albumin (A7030, Sigma), 0.05% DMSO (D4540, Sigma). The bottom chamber contained 150 µL of migration media with chemokine and peptide. Cells were migrated at 37 °C in 5% CO2 for 2 h. Analysis of cell migration. The migration plate was shaken at 850 RPM for 10 min, and media from bottom plate transferred to a round-bottomed 96 well plate (353910, Falcon). Cells were counted by flow cytometry as described above. Experiments were performed at chemokine EC80 for individual chemotaxis experiments and at EC50 for the pooled chemokine experiments, with three technical replicates, and at least three biological replicates. Statistical significance of differences between control and test groups was evaluated using a two-sided Dunnett’s test with multiple testing correction. Chemokine EC80 or chemokine pool EC50 values were as determined by performing a chemokine dose-response against the cell type and fitting the dose-response curve with a 3-parameter log-logistic model, where the maximal response is fixed at 100% response. […] IC50 was determined by performing inhibitor dose-response experiments and fitting the dose-response curve with a 3-parameter log-logistic model, fixing the bottom of the curve to zero. […] For summary statistics and comparisons, pEC50, pEC80 and pIC50 were calculated as the negative log10 of EC50, EC80 or IC50 expressed in moles/litre.
Sample size and estimated effect sizes were not formally calculated for cell-based or phage-display experiments and no randomization was performed. […]

Sequence: EEDDWTAYAPLTCYFT [HD2Y5W, HD2 point mutant]
- migrated cell count over all chemokines studied, compared to HD2 (meta-analysis): significant improvement over HD2

Sequence: EEDDYWAYAPLTCYFT [HD2T6W, HD2 point mutant]
- migrated cell count over all chemokines studied, compared to HD2 (meta-analysis): significant improvement over HD2
